From patent US6562387B2, “Ambient stable beverage and process of making” (priority 2000, dated 2003)
≈ marks a conversion by molar mass, not a printed value. Like-named read-outs stand apart in the source and are kept apart here.

What was measured:
[1] = Minimum inhibitory concentration (MIC) of antimicrobials / essential oils; format: cell-based
Description: The minimum inhibitory concentration (MIC) is given for each compound.
In each case the respective minimum inhibitory concentration (MIC) and their specific preferred concentration is also given.

[2] = system: yeast Saccharomyces cerevisiae X2180-1B; conditions: synthetic soft drink pH 3.4, 1-175 ppm cinnamic acid, 1-250 ppm DMDC, 14 days at 25° C.
Description: Synthetic soft drink contained glucose, 8%w/v, citric acid 3 g/l, potassium orthophosphate 1 g/l, magnesium chloride 0.1 g/g and yeast extract 0.1 g/l. […] Tubes were inoculated with 10^4 cells of the yeast Saccharomyces cerevisiae X2180-1B. Immediately following inoculation, dimethyl dicarbonate, DMDC was added at concentrations ranging from 1-250 ppm.

[3] = system: yeast Saccharomyces cerevisiae X2180-1B; conditions: RTD tea pH 3.4, 1-175 ppm cinnamic acid, 1-250 ppm DMDC, 14 days at 25° C.
Description: Tubes were inoculated with 10^4cells of the yeast Saccharomyces cerevisiae X2180-1B. Immediately following inoculation, dimethyl dicarbonate, DMDC was added at concentrations ranging from 1-250 ppm.
Tubes were inoculated with 10^4 cells of the yeast Saccharomyces cerevisiae X2180-1B. Immediately following inoculation, dimethyl dicarbonate, DMDC was added at concentrations ranging from 1-250 ppm.

[4] = system: mould; conditions: cited from earlier work
[5] = cited from earlier work
[6] = Table I, preferred essential oils, test organism not given, read-out: MIC (ppm)
[7] = Table II, particularly preferred essential oils, test organism not given
[8] = 25 ppm citral dimethyl acetal together with 35 ppm cumic alcohol
[9] = 100 ppm essential oil component
[10] = Table I, preferred essential oils, test organism not given

CCCCCCCCO [1-Octanol]
MIC [1, 6]: 247 µg/mL (≈ 1900 µM)

CC(=O)C(=O)c1ccccc1 [1-Phenyl-1,2-propanedione]
MIC [1, 6]: 222 µg/mL (≈ 1500 µM)

CCCCCCCCCCCO [1-Undecanol]
MIC [1, 6]: 14 µg/mL (≈ 81.2 µM)

CC(=O)OCCC1CCCCC1 [2-Cyclohexylethyl acetate]
MIC [1, 6]: 102 µg/mL

CCC=C(C)C=O [2-Methyl-2-pentenal]
MIC [1, 6]: 1270 µg/mL (≈ 13000 µM)

CC(C)CCCC(C)CCO (stereo not drawn) [3,7-Dimethyl-1-octanol]
MIC [1, 6]: 15.8 µg/mL (≈ 99.8 µM)
MIC (ppm) [1, 7]: 15.8 ppm
tubes supporting yeast growth, comparison with control FIG. 11 ([2]; 50 ppm essential oil component): very substantially fewer tubes supporting yeast growth
tubes supporting yeast growth, comparison with control FIG. 1 ([3]; 50 ppm essential oil component): very substantially fewer tubes supporting yeast growth

CC(=O)OCCc1scnc1C [4-Methyl-5-thiazoleethanol acetate]
MIC [1, 6]: 1110 µg/mL

CC(C)(C)C1CCC(=O)CC1 [4-tert-Butylcyclohexanone]
MIC [1, 6]: 462 µg/mL (≈ 3000 µM)

CC(C)CC=C(C=O)c1ccccc1 [5-Methyl-2-phenyl-2-hexenal]
MIC [1]: 162 µg/mL (≈ 860 µM)

O=C(OCc1ccccc1)c1ccc(O)cc1 [Benzyl-4-hydroxybenzoate]
MIC [1, 6]: 68 µg/mL (≈ 298 µM)

C=C(C)C1CC=C(C)C(=O)C1 (stereo not drawn) [Carvone]
MIC [1, 6]: 300 µg/mL (≈ 2000 µM)

O=CC=Cc1ccccc1 [Cinnamaldehyde]
MIC [1, 6]: 66 µg/mL (≈ 499 µM)

COC(C=C(C)CCC=C(C)C)OC [Citral dimethyl acetal]
MIC [1, 6]: 198 µg/mL (≈ 998 µM)
MIC (ppm) [1, 7]: 198 ppm
tubes supporting yeast growth, comparison with control FIG. 11 [2, 8]: very substantially fewer tubes supporting yeast growth
tubes supporting yeast growth, comparison with control FIG. 11 [2, 9]: very substantially fewer tubes supporting yeast growth
tubes supporting yeast growth, comparison with control FIG. 1 [3, 8]: very substantially fewer tubes supporting yeast growth
tubes supporting yeast growth, comparison with control FIG. 1 [3, 9]: very substantially fewer tubes supporting yeast growth

CC(C)=CCCC(C)=CC=O [Citral]
MIC [1, 6]: 228 µg/mL (≈ 1500 µM)
MIC (ppm) [1, 7]: 228 ppm
tubes supporting yeast growth, comparison with control FIG. 11 [2, 9]: very substantially fewer tubes supporting yeast growth
tubes supporting yeast growth, comparison with control FIG. 1 [3, 9]: very substantially fewer tubes supporting yeast growth

CC(C)=CCCC(C)CCO (stereo not drawn) [Citronellol]
MIC [1, 6]: 125 µg/mL (≈ 800 µM)

CC(C)c1ccc(CO)cc1 [Cumic alcohol]
MIC (ppm) [1, 10]: 450 ppm
MIC (ppm) [1, 7]: 450 ppm
tubes supporting yeast growth, comparison with control FIG. 11 [2, 8]: very substantially fewer tubes supporting yeast growth
tubes supporting yeast growth, comparison with control FIG. 11 [2, 9]: very substantially fewer tubes supporting yeast growth
tubes supporting yeast growth, comparison with control FIG. 1 [3, 8]: very substantially fewer tubes supporting yeast growth
tubes supporting yeast growth, comparison with control FIG. 1 [3, 9]: very substantially fewer tubes supporting yeast growth

O=C(O)CCCC1CCCCC1 [Cyclohexanebutyric acid]
MIC [1, 6]: 68 µg/mL (≈ 399 µM)

COC(=O)OC(=O)OC [DMDC, Dimethyl dicarbonate]
efficacy against mould contamination [4]: inefficient
break down in aqueous environments [5]: breaks down rapidly

CCCCCCCCCC=O [Decanal]
MIC [1, 6]: 47 µg/mL (≈ 301 µM)

CCCCCCCCCCO [Decanol]
MIC [1, 6]: 24 µg/mL (≈ 152 µM)

C=C(C)C1CCC(C)C(O)C1 (stereo not drawn) [Dihydrocarveol]
MIC (ppm) [1, 10]: 540 ppm

CCOC(=O)CCC1CCCCC1 [Ethyl cyclohexanepropionate]
MIC [1, 6]: 184 µg/mL (≈ 998 µM)

CCOC(=O)C(C)=O [Ethyl pyruvate]
MIC [1, 6]: 1390 µg/mL (≈ 12000 µM)
MIC (ppm) [1, 7]: 1392 ppm

CC/C=C\CC1=C(C)CCC1=O [Jasmone]
MIC [1, 6]: 246 µg/mL (≈ 1500 µM)

COC(=O)c1ccccc1N [Methyl anthranilate]
MIC [1, 6]: 310 µg/mL (≈ 2050 µM)

CCCCCCCCC(=O)OC [Methyl nonanoate]
MIC [1, 6]: 90 µg/mL (≈ 522 µM)

COC(=O)c1ccccc1O [Methyl salicylate]
MIC [1, 6]: 152 µg/mL (≈ 999 µM)

CC1(C)C2CC=C(CO)C1C2 (stereo not drawn) [Myrtenol]
MIC (ppm) [1, 10]: 137 ppm
MIC (ppm) [1, 7]: 137 ppm
tubes supporting yeast growth, comparison with control FIG. 11 [2, 9]: very substantially fewer tubes supporting yeast growth
tubes supporting yeast growth, comparison with control FIG. 1 [3, 9]: very substantially fewer tubes supporting yeast growth

CC1CCC(C(C)C)C(O)C1 (stereo not drawn) [Neomenthol]
MIC (ppm) [1, 10]: 156 ppm

CCCCCCCCC(=O)O [Nonanoic acid]
MIC [1, 6]: 63 µg/mL (≈ 398 µM)

CCCCCCCC(=O)O [Octanoic acid (caprylic), Octanoic acid]
MIC [1, 6]: 115 µg/mL (≈ 797 µM)

CC(=O)OCc1ccc2c(c1)OCO2 [Piperonyl acetate]
MIC [1]: 242 µg/mL
MIC (ppm) [1, 7]: 242 ppm
tubes supporting yeast growth, comparison with control FIG. 11 [2, 9]: very substantially fewer tubes supporting yeast growth
tubes supporting yeast growth, comparison with control FIG. 1 [3, 9]: very substantially fewer tubes supporting yeast growth

CCCOC(=O)c1ccccc1 [Propyl benzoate]
MIC [1, 6]: 66 µg/mL (≈ 402 µM)

CC(C)=C1CC[C@@H](C)CC1=O [Pulegone]
MIC [1, 6]: 152 µg/mL (≈ 998 µM)

CC=CC=CC=O [Sorbic aldehyde (2,4-hexadienal), 2,4-hexadienal]
MIC [1, 6]: 86 µg/mL (≈ 895 µM)

CC1=CCC(O)(C(C)C)CC1 (stereo not drawn) [Terpinen-4-ol]
MIC [1, 6]: 616 µg/mL (≈ 3990 µM)

CCCCCCCCCCC=O [Undecanal]
MIC [1, 6]: 34 µg/mL (≈ 200 µM)

COc1cc(C=O)ccc1O [Vanillin]
MIC [1, 6]: 1220 µg/mL (≈ 7990 µM)

COc1ccccc1C=CC=O [o-Methoxycinnamaldehyde]
MIC [1, 6]: 130 µg/mL (≈ 802 µM)

CCCCC/C=C/C=C/C=O [trans, trans-2,4-Decadienal]
MIC [1, 6]: 8 µg/mL (≈ 52.5 µM)
MIC (ppm) [1, 7]: 8 ppm
tubes supporting yeast growth, comparison with control FIG. 11 ([2]; 15 ppm essential oil component): very substantially fewer tubes supporting yeast growth
tubes supporting yeast growth, comparison with control FIG. 1 ([3]; 15 ppm essential oil component): very substantially fewer tubes supporting yeast growth

C/C(C=O)=C\c1ccccc1 [α-Methyl-trans-cinnamaldehyde]
MIC (ppm) [1, 10]: 58.4 ppm

CCCCCC1CCC(=O)O1 (stereo not drawn) [γ-Nonanoic lactone]
MIC (ppm) [1, 10]: 63 ppm

CCCCCCCC1CCC(=O)O1 (stereo not drawn) [γ-Undecalactone]
MIC (ppm) [1, 10]: 28 ppm

CCCC1CCCC(=O)O1 (stereo not drawn) [δ-Octalactone]
MIC (ppm) [1, 10]: 568 ppm

Tolualdehyde
MIC (ppm) [1, 10]: 240 ppm
